Experimental data reported in US20140038953A1, “COMPOSITIONS AND METHODS FOR CARDIOVASCULAR DISEASE” (THE GENERAL HOSPITAL CORPORATION, priority 2011, published 2014).
Marks after values point to notes of the source that are not given here.

Experiments:
Type in all cases: in vivo
LDLR−/− mice [1] = test: Blood biochemical analysis in LDLR−/− mice on high fat diet
Description: Female mice deficient for the low density lipoprotein receptor (LDLR^−/−) on a C57BL/6 background with appropriate control mice mice (eight weeks of age) were obtained from Jackson Laboratories (Bar Harbor, Me.). Animals were fed a western style diet formulated to match Paigen's Atherogenic Rodent Diet (42% fat, 0.15% cholesterol, 19.5% casein; Research Diets Inc., New Brunswick, N.J.).
[…], white blood count, hematocrit, hemoglobin, and platelets were analyzed using a HemaTrue™ Hematology Analyzer (Heska AG, Switzerland). Urea nitrogen, glucose, alkaline phosphatase, total protein, alanine transaminase and creatinine were determined using a Spotchem EZ SP-4430 POCT analyzer (Arkray, Inc., Kyoto, Japan). HDL and LDL levels were determined using a fluorescence quantification kit (K613-100, Biovision, Mountain View, Calif.)

Wnt3a gene expression = test: Aortic Wnt3a gene expression in MGP−/− mice; conditions: 2.5 mg/kg/day IP day 1-28
Description: Total cellular RNA from either snap frozen tissues or cultured cells was extracted by the Phenol/guanidine method as described. (Chomczynski, P. & Sacchi, N. Single-step method of RNA isolation by acid guanidinium thiocyanate-phenol-chloroform extraction. Anal Biochem 162, 156-159 (1987).) cDNA was synthesized using Moloney murine leukemia virus reverse transcriptase (Promega, Madison, Wis., USA).
MGP−/− mice were treated with intraperitoneal (IP) injections of either vehicle or compound 13 at 2.5 mg/kg/day from day 1-28. At day 28, aortas were harvested for both histology and RNA isolation. […] To further quantify aortic calcium, a fluorescent bisphosphonate agent that specifically binds to hydroxyapatite (OsteoSense 680 nm, Perkin Elmer) was used. (Aikawa E, et al. Multimodality molecular imaging identifies proteolytic and osteogenic activities in early aortic valve disease. Circulation. 2007; 115(3):377-386 and Zaheer A, et al. In vivo near-infrared fluorescence imaging of osteoblastic activity. Nature biotechnology. 2001; 19(12):1148-1154.) MGP−/− mice at 27 days of age treated with vehicle or compound 13 received OsteoSense via tail vein, and 24 h later, aortas were harvested for imaging. […]

[2] = system: constitutively-active mutant form of ALK2; test: Mouse model of FOP (constitutively-active mutant ALK2); conditions: 3 mg/kg ip twice daily
Description: A mouse model of FOP has been developed in which expression of a constitutively-active mutant form of ALK2 is induced by injecting the popliteal fossa of a genetically-modified mouse with an adenovirus directing expression of Cre recombinase. This model reproduces the ectopic calcification and disability seen in FOP patients.

phospho-Smad 1/5/8 = test: Phospho-Smad 1/5/8 immunohistochemistry in MGP−/− aortas; conditions: MGP−/− mice, 2.5 mg/kg once daily IP day 1 to 28
Description: MGP−/− mice were treated with either vehicle or the small molecule BMP type I receptor inhibitor compound 13 (2.5 mg/kg once daily IP) from day 1 to 28. Compound 13 is used as a BMP inhibitor positive control compound in these experiments. Whole aortas were harvested for phospho-Smad 1/5/8 (P-Smad) immunohistochemistry, a marker of BMP signaling, and for Alizarin Red staining of calcium. Osteogenic activity in aortas was visualized ex vivo by the uptake of a fluorescent bisphosphonate imaging probe. MGP−/− mice were also treated with vehicle or compound 13 to ascertain if inhibition of BMP signaling could impact survival, using Kaplan-Meier and Cox regression analysis. […] To further quantify aortic calcium, a fluorescent bisphosphonate agent that specifically binds to hydroxyapatite (OsteoSense 680 nm, Perkin Elmer) was used. (Aikawa E, et al. Multimodality molecular imaging identifies proteolytic and osteogenic activities in early aortic valve disease. Circulation. 2007; 115(3):377-386 and Zaheer A, et al. In vivo near-infrared fluorescence imaging of osteoblastic activity. Nature biotechnology. 2001; 19(12):1148-1154.) MGP−/− mice at 27 days of age treated with vehicle or compound 13 received OsteoSense via tail vein, and 24 h later, aortas were harvested for imaging. […]

LDLR−/− mice [3] = test: Hepatic steatosis in LDLR−/− mice on high fat diet; conditions: high fat diet 20 weeks, 2.5 mg/kg ip daily
Description: Aortas were either immediately embedded and cryopreserved using optimal cutting-temperature medium (Sakura Tissue-Tek, Zoeterwoude, The Netherlands) or fixed in paraformaldehyde and embedded in parafin. The presence of calcification was determined by staining tissue sections with Alizarin red or Von Kossa. Lipid accumulation in tissue sections was visualized by staining with Oil Red O. Liver sections were prepared from paraformaldehyde-fixed tissue and stained with hematoxylin and eosin.

[4] = LDLR−/− mice, HFD 20 weeks, in words
[5] = female LDLR−/− mice, high fat diet 6 weeks, compound 13 2.5 mg/kg ip daily, ALK3-Fc 2 mg/kg ip every other day, mean ± SEM
[6] = female LDLR−/− mice, high fat diet 20 weeks, 2.5 mg/kg ip daily, mean ± SEM
[7] = listed as compound 13, 2.5 mg/kg

`c1ccc2c(-c3cnn4cc(-c5ccc(N6CCNCC6)cc5)cnc34)ccnc2c1` [Compound 13, 4-[6-(4-piperazin-1-ylphenyl)pyrazolo[1,5-a]pyrimidin-3-yl]quinoline] was tested, and the “serum alanine transaminase (ALT) levels vs vehicle” value (LDLR−/− mice [1]; LDLR−/− mice on HFD, in words) was “reduced”, the “serum alkaline phosphatase (ALP) levels vs vehicle” value (LDLR−/− mice [1]; LDLR−/− mice on HFD, in words) was “reduced” and the “HDL cholesterol levels vs vehicle” value (LDLR−/− mice [1]; [4]) was “not altered”. For the same compound, the “serum LDL cholesterol levels vs vehicle” value (LDLR−/− mice [1]; [4]) was “lower serum LDL cholesterol levels”, the “total cholesterol levels vs vehicle” value (LDLR−/− mice [1]; [4]) was “reduced total cholesterol levels” and the “serum LDL cholesterol levels vs vehicle” value (LDLR−/− mice [1]; LDLR−/− mice, HFD 20 weeks, in words, listed as compound 13) was “reduced total cholesterol levels and LDL levels”. It also gave an Alanine transaminase (LDLR−/− mice [1]; [5]) of 233 ± 56 IU/L, an Alkaline phosphatase (LDLR−/− mice [1]; [5]) of 112 ± 20 IU/L and a Blood urea nitrogen (LDLR−/− mice [1]; [5]) of 24 ± 2 mg/dL. The Cholesterol (LDLR−/− mice [1]; [5]) was 1553 ± 77*^,§ mg/dl, the Creatinine (LDLR−/− mice [1]; [5]) was 0.5 ± 0.1 mg/dL and the Glucose (LDLR−/− mice [1]; [5]) was 259 ± 20 mg/dL. The Hemoglobin (LDLR−/− mice [1]; [5]) was 12.9 ± 1.5 g/dL, the Total protein (LDLR−/− mice [1]; [5]) was 5.1 ± 0.1 g/dL and the Triglycerides (LDLR−/− mice [1]; [5]) was 112 ± 15 mg/dL. For the same compound, the Alanine transaminase (LDLR−/− mice [1]; [6]) was 130 ± 21‘ IU/L, the Alkaline phosphatase (LDLR−/− mice [1]; [6]) was 84 ± 11 IU/L and the Blood urea nitrogen (LDLR−/− mice [1]; [6]) was 25 ± 2 mg/dL. The Cholesterol (LDLR−/− mice [1]; [6]) was 1401 ± 87 mg/dL, the Creatinine (LDLR−/− mice [1]; [6]) was 0.4 ± 0.0 mg/dL and the Glucose (LDLR−/− mice [1]; [6]) was 230 ± 19 mg/dL. For the same compound, the HDL (LDLR−/− mice [1]; [6]) was 73.8 ± 26.5 mg/dL, the Hemoglobin (LDLR−/− mice [1]; [6]) was 12.9 ± 0.8 g/dL and the LDL (LDLR−/− mice [1]; [6]) was 1166.3 ± 257.3 mg/dL. The Total protein (LDLR−/− mice [1]; [6]) was 4.3 ± 0.4 g/dL, the Triglycerides (LDLR−/− mice [1]; [6]) was 135 ± 16 mg/dL and the “reduction in aortic Wnt3a gene expression” value (Wnt3a gene expression) was over 5 fold. For the same compound, the “ectopic calcification and disability” value [2] was “prevented the ectopic calcification and disability”, the “aortic P-Smad (Smad 1/5/8 phosphorylation)” value (phospho-Smad 1/5/8; 2.5 mg/kg) was “reduced aortic P-Smad” and the “aortic P-Smad (Smad 1/5/8 phosphorylation)” value (phospho-Smad 1/5/8; [7]) was “reduced BMP signaling”. The hepatic steatosis (LDLR−/− mice [3]; 2.5 mg/kg) was “protected from hepatic steatosis” and the hepatic steatosis (LDLR−/− mice [3]; [7]) was “could be prevented”.
